Legend:
[1] = tested on: Swiss Webster mice; assay: Acute toxicity (LD50), iv administration to mice; assay type: in vivo; details: 500 mM Gd chelate alone or with 25 mM added Ca chelate
Protocol: Acute toxicity (LD50) values were determined for compositions comprising 500 mM Gd DTPA-APD alone or together with 25 mM of the calcium chelate of DTPA-APD and, for further comparison, for compositions comprising 500 mM Gd DTPA-dimeglumine alone or together with 25 mM of a calcium chelate of DTPA or a DTPA-bisamide (the bismethylamide. The acute toxicities were determined by iv administrations of the compositions to Swiss Webster mice.

[2] = iv administration; AU-81889/87; cited from earlier work

For `CNC[C@H](O)[C@@H](O)[C@H](O)[C@H](O)CO.CNC[C@H](O)[C@@H](O)[C@H](O)[C@H](O)CO.O=C([O-])CN(CCN(CC(=O)[O-])CC(=O)O)CCN(CC(=O)[O-])CC(=O)O.[Gd+3]` [Gd DTPA], the “LD50 (iv mice)” value [1] is listed as 5.5 mmol/kg and the “gadolinium retention (in words)” value [2] is listed as “gadolinium retention following iv administration”.
